In data set [1] the target is MRGPRA1, GFP-tagged (mouse) (UniProt Q91WW5).
The test system of the next data set is mice. Briefly: Plasma injection assay: scratching bouts after injection of mouse or human plasma. It counts as in vivo. The conditions noted are these: plasma treated with FeCl3 (vs NT), one value per animal. An excerpt:
Plasma from patients suffering from hyperbilirubinemia, specifically cholestasis, was isolated under a protocol approved by the Institutional Review Board at the Johns Hopkins University School of Medicine (Study number: IRB00154650). […] Both cholestatic and control plasma were isolated under protocols approved by the Institutional Review Board at the Johns Hopkins University School of Medicine (Cholestasis Study number: IRB00154650; Control study number: NA_00013177, the Johns Hopkins Department of Dermatology Patient Database and Tissue Bank). Whole blood was collected into PAXgene tubes (PreAnalytiX 761115) and centrifuged for 5 min at 300 g. Plasma was then collected, aliquoted, and stored at −20°C until experimentation. […] All applicable behavioral tests were performed and analysed with the experimenter blind to genotype. […] There were no significant differences in itch between male and female mice. […] On the day before the experiment, animals were placed in the test chamber for 30 min before being subjected to a series of three mock injections with 5 min break periods in between. On the day of the experiment, animals were first allowed to acclimatize to the test chamber for 10 min before injection. […] A bout of scratching was defined as a continuous scratching movement with either hindpaw directed at the area of the injection site. In the cheek injection model, a wipe was defined as a single forepaw stroking the site of the injection. Use of both forepaws on the face or cheek was considered as grooming behavior. […] For H1R block, 30 mg/kg of cetirizine HCl (pH 7.4) was given intraperitoneally thirty minutes prior to injection of bilirubin. Licking behavior was quantified in seconds and identified as the licking of the toes or footpad of the hind paw site of injection that was neither preceded nor followed by licking of any other portion of the body.

For data set [2] the following is noted: mouse, in vivo, 1 mg/kg.
The conditions of data set [3]: cited from earlier work.

Values joined by “and” are separate entries in the source; they are usually repeats but may differ in a detail not shown here. Equal entries are not always repeated. Square brackets hold non-standard residues; d marks the D form. Peptide text beside a SMILES is read from it. * marks the point of attachment. Boc = CC(C)(C)OC(=O)*; OBn = c1ccc(CO*)cc1; For = O=C*

MRGPRA1, GFP-tagged (mouse), sequence (Q91WW5 whole entry): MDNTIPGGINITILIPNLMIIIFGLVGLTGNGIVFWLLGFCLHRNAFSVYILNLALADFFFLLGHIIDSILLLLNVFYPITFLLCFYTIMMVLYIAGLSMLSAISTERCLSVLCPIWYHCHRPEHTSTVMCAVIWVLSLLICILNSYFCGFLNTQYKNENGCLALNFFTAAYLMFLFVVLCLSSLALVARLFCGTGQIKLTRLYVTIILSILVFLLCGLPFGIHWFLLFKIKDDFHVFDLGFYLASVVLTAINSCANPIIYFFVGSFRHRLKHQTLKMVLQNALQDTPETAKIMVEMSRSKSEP

The compound “QWF (BOC-GLN-D-(FORMYL)TRP-PHE-BENZYLESTER) (peptide)” returned an inhibition of the bilirubin-induced Ca2+ signal in MRGPRA1-expressing HEK cells (200 µM bilirubin kept in competition with varied doses of QWF) in data set [1] of 2.9 µM.

Consider `[Cl][Fe]([Cl])[Cl]` [FeCl3], for which the “Scratching bouts after injection of plasma” value with mice (NT values equal cholestasis WT c1 of sheet Fig 7 - CD) was 75 and 132 and 54 and 111 and 173 and 58 and 34; in the data set with mice (NT/FeCl3 pair, NT values equal cholestasis WT c7 of sheet Fig 7 - CD) it was 117 and 53 and 60 and 54 and 67; with mice (NT/FeCl3 pair, plasma source not given), 45 and 53 and 51 and 41 and 34.

As for `CC(C)(C)OC(=O)N[C@@H](CCC(N)=O)C(=O)N[C@H](Cc1cn(C=O)c2ccccc12)C(=O)N[C@@H](Cc1ccccc1)C(=O)OCc1ccccc1` [QWF, BOC-GLN-D-(FORMYL)TRP-PHE-BENZYLESTER] (Boc-Gln-[dW](For)-Phe-OBn), the “Plasma levels of total bilirubin, AST, ALT, ALP” value in data set [2] is reported as “did not change plasma levels of total bilirubin, AST, ALT, or ALP”. Further, the t1/2 in plasma in data set [3] was 1.17 h.

These data come from PMC6368403, “Identification of a bilirubin receptor that may mediate a component of cholestatic itch” (eLife, 2019).
